This note sets out measurements from PubChem BioAssay (NCI).

What all share (experiment): NCI-60 cell line screen, 48 h
For assay [1], the system named is BT-549 breast.
For assay [2], the system named is HCT-116 colon.
Assay [3] relates to HL-60(TB) leukemia.
Assay [4] concerns NCI-H226 lung.
Assay [5] concerns NCI-H460 lung.
The test system of assay [6] is SF-268 CNS.
Assay [7] concerns UACC-257 melanoma.
Assay [8] deals with T-47D breast.

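Test compounds were applied to cells in 96-well plates for 48 hours at 5 doses. TGI is the concentration that stops growth completely.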 Some results are limits rather than exact numbers.

For `CCc1nc2ccc(C(F)(F)F)cc2[nH]c1=O`, the TGI in assay [1], in assay [2], in assay [3], in assay [4], in assay [5] and in assay [6] was greater than 100 µM in each case. In assay [7], the TGI was greater than 100 µM.

With `CCN(CC)C(=O)N1CN(c2ccccc2)C2(CCN(CCCSc3ccc(F)cc3)CC2)C1=O`, the TGI was found to be 31.4 µM in assay [1]; 12.9 µM in assay [2]; 19.4 µM in assay [3]; 44.4 µM in assay [4]; 36.1 µM in assay [6]; 47.1 µM in assay [8]. The same compound registered a TGI in assay [7] of 12.8 µM.

For `Cc1cc2nc(N3C(=O)/C(=C/c4ccc(Cl)cc4)N=C3c3ccccc3)sc2cc1C`, the TGI in assay [1] is 81.7 µM; in assay [2], 53.9 µM; in assay [3], 51.7 µM; in assay [5], greater than 100 µM; in assay [6], greater than 100 µM; in assay [8], greater than 100 µM. The same compound showed a TGI in assay [7] greater than 100 µM.

`NC(=O)c1nnsc1NC=O`: the TGI in assay [2], in assay [3], in assay [4], in assay [5], in assay [6] and in assay [8] was greater than 100 µM each time. The compound further returned a TGI in assay [7] greater than 100 µM.

Consider `O=C1CCCC2=C1CC1=C(CCCC1=O)N2c1ccccc1`, for which the TGI in assay [1], in assay [3], in assay [4], in assay [5] and in assay [6] was greater than 100 µM in each case.

As to `c1ccc2c(c1)CC1COc3ccccc3C1O2` (stereo not given), the TGI in assay [1], in assay [2], in assay [3], in assay [4], in assay [6] and in assay [8] was greater than 100 µM throughout. In assay [7], the TGI was greater than 100 µM.

In the case of `CC(=O)OCC1OC(O/C=C(\CN=[N+]=[N-])C(C)=O)C(OC(C)=O)C(OC(C)=O)C1OC(C)=O` (stereo not given), the TGI in assay [1] worked out at 31.2 µM; in assay [2], 13.8 µM; in assay [3] it was 5.27 µM; in assay [5], 48.9 µM; in assay [6], 56.9 µM; in assay [8], 13.4 µM. Further, in assay [7], the TGI amounted to 17.1 µM.

Turning to `CC(C)OC(=O)[C@@H](O)[C@H](CO)C1=CC([Si](C)(C)c2ccccc2)=CON1`, the TGI in assay [1], in assay [2], in assay [4], in assay [5], in assay [6] and in assay [8] was greater than 100 µM throughout. This compound also had a TGI in assay [7] greater than 100 µM.

`CCN(CC)CCCOc1cc2c(cc1OC)C(=O)N1CCC[C@H]1C=N2`: the TGI in assay [1] is 76.1 µM; in assay [2], greater than 100 µM; in assay [3], greater than 100 µM; in assay [4], 65.8 µM; in assay [5], greater than 100 µM; in assay [6], greater than 100 µM. Also, the TGI in assay [7] is greater than 100 µM.

For `Clc1c(C(Cl)(Cl)Cl)nsc1N1CCCCC1`, the TGI in assay [1] is 48.4 µM; in assay [2] it was 76.6 µM; in assay [3] it was 48.2 µM; in assay [4], 36.2 µM; in assay [5], greater than 100 µM; in assay [6], greater than 100 µM. The same compound gave a TGI in assay [7] of 64.7 µM.

As to `NC1CC(=O)c2sccc21` (stereo not given), the TGI in assay [1], in assay [2], in assay [4], in assay [6], in assay [8] and in assay [7] was greater than 100 µM throughout.

In the case of `c1ccc(C2=NCCc3cc4c(cc32)OCO4)cc1`, the TGI in assay [6], in assay [8] and in assay [7] was greater than 100 µM each time.

Take `Clc1ncc(Cl)c(Cl)n1`: the TGI is 8.01 µM in assay [2]; 2.36 µM in assay [3]; 19 µM in assay [4]; greater than 100 µM in assay [5]; 20.5 µM in assay [6]; 10 µM in assay [8]. In assay [7], this compound gave a TGI of 14.3 µM.

With `Cc1nc2ccccc2n1Cc1nnc(N)o1`, the TGI in assay [1], in assay [2], in assay [3], in assay [5], in assay [6] and in assay [8] was greater than 100 µM in each case. Moreover, in assay [7], the TGI is greater than 100 µM.

Turning to `CC(NC(C#N)CC12CC3CC(CC(C3)C1)C2)c1ccccc1` (stereo not given), the TGI was greater than 100 µM in assay [2]; 42.3 µM in assay [3]; 67.1 µM in assay [5]; greater than 100 µM in assay [6]; greater than 100 µM in assay [8]; greater than 100 µM in assay [7].

In the case of `CC(=O)O[C@H]1C[C@H]2C(=S)Nc3ccccc3C(=S)N2C1`, the TGI in assay [1], in assay [2], in assay [4], in assay [5], in assay [6] and in assay [8] was greater than 100 µM in each case. The compound also had a TGI in assay [7] greater than 100 µM.

On to `CC1CCc2sc3[nH]c(=S)n(-c4ccccc4)c(=O)c3c2C1` (stereo not given), for which the TGI in assay [1], in assay [2], in assay [4], in assay [5], in assay [6] and in assay [8] was greater than 100 µM each time. The TGI in assay [7] is greater than 100 µM.

With `NS(=O)(=O)c1nnc(NS(=O)(=O)c2ccccc2C(=O)O)s1`, the TGI in assay [1], in assay [2], in assay [4], in assay [5], in assay [6] and in assay [8] was greater than 100 µM throughout. The TGI in assay [7] is greater than 100 µM.

For `C=C(C)[C@@H]1CCC2=C[C@H](CC(C)=CC3=CC(C)=C(O3)[C@@H]1OC)OC2=O`, the TGI in assay [1], in assay [3], in assay [4], in assay [5], in assay [6] and in assay [8] was greater than 100 µM throughout. This compound also came in with a TGI in assay [7] greater than 100 µM.
